Key:
[1] = refractive index (Na D-line) (dimensionless); xn = mol fraction of the nth substance listed; conditions: 101 kPa, Liquid, Standard Abbe refractometry
[2] = xn = mol fraction of the nth substance listed; conditions: 101 kPa, Liquid; for viscosity: Stabinger Viscometer; for mass density: Vibrating tube method

CCn1cc[n+](C)c1.O=C([O-])[C@@H]1CCCN1 [1-ethyl-3-methyl-1H-imidazolium L-prolinate] + CCn1cc[n+](C)c1.N#C[C-](C#N)C#N
Conditions | mass density, [2] [kg/m3] | refractive index, [1] | viscosity, [2] [mPa·s]
293.15 K, x2 = 0 | 1145.9 | 1.52291 | 1928.4
293.15 K, x2 = 0.2501 | 1131.7 | 1.52057 | 731.38
293.15 K, x2 = 0.5002 | 1116.4 | 1.5191 | 183.74
293.15 K, x2 = 0.7501 | 1100.6 | 1.51665 | 49.1
298.15 K, x2 = 0 | 1142.8 | 1.52151 | 1194.6
298.15 K, x2 = 0.2501 | 1128.4 | 1.51913 | 474.82
298.15 K, x2 = 0.5002 | 1113.1 | 1.5176 | 131.11
298.15 K, x2 = 0.7501 | 1097.2 | 1.51508 | 38.6
303.15 K, x2 = 0 | 1139.6 | 1.52009 | 771.51
303.15 K, x2 = 0.2501 | 1125.1 | 1.51769 | 320.94
303.15 K, x2 = 0.5002 | 1109.8 | 1.51611 | 96.6
303.15 K, x2 = 0.7501 | 1093.8 | 1.51349 | 30.96
308.15 K, x2 = 0 | 1136.4 | 1.5187 | 517.61
308.15 K, x2 = 0.2501 | 1121.8 | 1.51622 | 224.85
308.15 K, x2 = 0.5002 | 1106.6 | 1.5146 | 73.15
308.15 K, x2 = 0.7501 | 1090.4 | 1.5119 | 25.29
313.15 K, x2 = 0 | 1133.2 | 1.51731 | 359.21
313.15 K, x2 = 0.2501 | 1118.7 | 1.51477 | 162.54
313.15 K, x2 = 0.5002 | 1103.3 | 1.51306 | 56.72
313.15 K, x2 = 0.7501 | 1087 | 1.51033 | 21
318.15 K, x2 = 0 | 1130.1 | 1.51591 | 256.92
318.15 K, x2 = 0.2501 | 1115.5 | 1.51333 | 120.81
318.15 K, x2 = 0.5002 | 1100.1 | 1.51153 | 44.93
318.15 K, x2 = 0.7501 | 1083.7 | 1.50875 | 17.68
323.15 K, x2 = 0 | 1127.1 | 1.51454 | 188.66
323.15 K, x2 = 0.2501 | 1112.4 | 1.51191 | 92
323.15 K, x2 = 0.5002 | 1096.8 | 1.51006 | 36.25
323.15 K, x2 = 0.7501 | 1080.3 | 1.50717 | 15.08
328.15 K, x2 = 0 | 1124 | 1.51315 | 141.76
328.15 K, x2 = 0.2501 | 1109.3 | 1.51046 | 71.61
328.15 K, x2 = 0.5002 | 1093.6 | 1.50858 | 29.73
328.15 K, x2 = 0.7501 | 1077 | 1.50561 | 13
333.15 K, x2 = 0 | 1121 | 1.51177 | 108.85
333.15 K, x2 = 0.2501 | 1106.2 | 1.50899 | 56.8
333.15 K, x2 = 0.5002 | 1090.4 | 1.5071 | 24.75
333.15 K, x2 = 0.7501 | 1073.6 | 1.504 | 11.32
338.15 K, x2 = 0 | 1118 | 1.51035 | 85.12
338.15 K, x2 = 0.2501 | 1103.1 | 1.50752 | 45.83
338.15 K, x2 = 0.5002 | 1087.2 | 1.50564 | 20.87
338.15 K, x2 = 0.7501 | 1070.3 | 1.50249 | 9.95
343.15 K, x2 = 0 | 1115 | 1.50897 | 67.69
343.15 K, x2 = 0.2501 | 1100 | 1.50611 | 37.55
343.15 K, x2 = 0.5002 | 1084 | 1.50412 | 17.8
343.15 K, x2 = 0.7501 | 1067 | 1.50096 | 8.82
348.15 K, x2 = 0 | 1112 | 1.50757 | 54.73
348.15 K, x2 = 0.2501 | 1096.9 | 1.50461 | 31.2
348.15 K, x2 = 0.5002 | 1080.8 | 1.50269 | 15.35
348.15 K, x2 = 0.7501 | 1063.8 | 1.49941 | 7.87
353.15 K, x2 = 0 | 1109.1 | 1.5062 | 44.89
353.15 K, x2 = 0.2501 | 1093.8 | 1.50319 | 26.24
353.15 K, x2 = 0.5002 | 1077.7 | 1.50126 | 13.37
353.15 K, x2 = 0.7501 | 1060.5 | 1.49791 | 7.07

— the NIST ThermoML archive (doi:10.1021/acs.jced.5b00242)
